{
  "source": "ChEMBL document CHEMBL1201862",
  "about": "“PubChem BioAssay data set” (2004)",
  "assay_in_all_cases": "NCI-60 cell line screen, 48 h",
  "key": {"SK-OV-3": {"system": "SK-OV-3"}, "TK-10": {"system": "TK-10"}, "PC-3": {"system": "PC-3"}, "RXF 393": {"system": "RXF 393"}, "RPMI-8226": {"system": "RPMI-8226"}, "LOX IMVI": {"system": "LOX IMVI"}, "U-251": {"system": "U-251"}, "HOP-62": {"system": "HOP-62"}, "OVCAR-8": {"system": "OVCAR-8"}, "NCI/ADR-RES": {"system": "NCI/ADR-RES"}, "SF-539": {"system": "SF-539"}, "HT-29": {"system": "HT-29"}, "HL-60": {"system": "HL-60"}, "KM12": {"system": "KM12"}, "OVCAR-3": {"system": "OVCAR-3"}, "OVCAR-5": {"system": "OVCAR-5"}, "UO-31": {"system": "UO-31"}, "COLO 205": {"system": "COLO 205"}, "HCC 2998": {"system": "HCC 2998"}, "SNB-75": {"system": "SNB-75"}},
  "note": "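Values below derive from 48-hour exposures of cells grown in 96-well plates, with endpoints linearly interpolated between the two concentrations bracketing the appropriate inhibition level. GI50 marks 50% less growth.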 Activity calls are given as the source filed them. Rule as the data show it: active = GI50 up to about 1.1 µM and inactive = higher.",
  "data": [
    {"smiles": "Cn1c(Nc2ccccc2)c(/C=N\\c2ccccc2)c(=O)n(C)c1=O", "values": [
      {"measurement": "GI50", "setting": "SK-OV-3", "value": "62.1 µM (inactive)"},
      {"measurement": "GI50", "setting": "TK-10", "value": "> 100 µM (inactive)"},
      {"measurement": "GI50", "setting": "PC-3", "value": "> 100 µM (inactive)"},
      {"measurement": "GI50", "setting": "RXF 393", "value": "75.9 µM (inactive)"},
      {"measurement": "GI50", "setting": "RPMI-8226", "value": "> 100 µM (inactive)"},
      {"measurement": "GI50", "setting": "LOX IMVI", "value": "36.4 µM (inactive)"},
      {"measurement": "GI50", "setting": "U-251", "value": "30 µM (inactive)"},
      {"measurement": "GI50", "setting": "HOP-62", "value": "22.5 µM (inactive)"},
      {"measurement": "GI50", "setting": "OVCAR-8", "value": "39.7 µM (inactive)"},
      {"measurement": "GI50", "setting": "NCI/ADR-RES", "value": "41 µM (inactive)"},
      {"measurement": "GI50", "setting": "SF-539", "value": "94 µM (inactive)"},
      {"measurement": "GI50", "setting": "HT-29", "value": "47.9 µM (inactive)"},
      {"measurement": "GI50", "setting": "HL-60", "value": "> 100 µM (inactive)"},
      {"measurement": "GI50", "setting": "KM12", "value": "97.7 µM (inactive)"},
      {"measurement": "GI50", "setting": "OVCAR-3", "value": "> 100 µM (inactive)"},
      {"measurement": "GI50", "setting": "OVCAR-5", "value": "> 100 µM (inactive)"},
      {"measurement": "GI50", "setting": "UO-31", "value": "54.2 µM (inactive)"}
    ]},
    {"smiles": "Cc1ccc(CC2(OCCN(C)C)CCC(C(C)(C)C)CC2)cc1", "note": "(stereo not given)", "values": [
      {"measurement": "GI50", "setting": "SK-OV-3", "value": "8.17 µM (inactive)"},
      {"measurement": "GI50", "setting": "COLO 205", "value": "2.05 µM (inactive)"},
      {"measurement": "GI50", "setting": "HCC 2998", "value": "1.98 µM (inactive)"},
      {"measurement": "GI50", "setting": "TK-10", "value": "4.47 µM (inactive)"},
      {"measurement": "GI50", "setting": "PC-3", "value": "3.04 µM (inactive)"},
      {"measurement": "GI50", "setting": "RPMI-8226", "value": "1.84 µM (inactive)"},
      {"measurement": "GI50", "setting": "LOX IMVI", "value": "1.57 µM (inactive)"},
      {"measurement": "GI50", "setting": "U-251", "value": "2.34 µM (inactive)"},
      {"measurement": "GI50", "setting": "HOP-62", "value": "3.01 µM (inactive)"},
      {"measurement": "GI50", "setting": "OVCAR-8", "value": "4.62 µM (inactive)"},
      {"measurement": "GI50", "setting": "NCI/ADR-RES", "value": "6.73 µM (inactive)"},
      {"measurement": "GI50", "setting": "SF-539", "value": "1.81 µM (inactive)"},
      {"measurement": "GI50", "setting": "HT-29", "value": "2.13 µM (inactive)"},
      {"measurement": "GI50", "setting": "HL-60", "value": "0.767 µM (active)"},
      {"measurement": "GI50", "setting": "KM12", "value": "3.62 µM (inactive)"},
      {"measurement": "GI50", "setting": "OVCAR-3", "value": "9.68 µM (inactive)"},
      {"measurement": "GI50", "setting": "OVCAR-5", "value": "5.52 µM (inactive)"},
      {"measurement": "GI50", "setting": "SNB-75", "value": "6.81 µM (inactive)"},
      {"measurement": "GI50", "setting": "UO-31", "value": "3.49 µM (inactive)"}
    ]},
    {"smiles": "CC1(C)CCN2C(=O)C34CCCC3CC21S4", "note": "(stereo not given)", "values": [
      {"measurement": "GI50", "setting": "SK-OV-3", "value": "> 100 µM (inactive)"},
      {"measurement": "GI50", "setting": "COLO 205", "value": "> 100 µM (inactive)"},
      {"measurement": "GI50", "setting": "TK-10", "value": "> 100 µM (inactive)"},
      {"measurement": "GI50", "setting": "PC-3", "value": "> 100 µM (inactive)"},
      {"measurement": "GI50", "setting": "RXF 393", "value": "> 100 µM (inactive)"},
      {"measurement": "GI50", "setting": "RPMI-8226", "value": "> 100 µM (inactive)"},
      {"measurement": "GI50", "setting": "LOX IMVI", "value": "> 100 µM (inactive)"},
      {"measurement": "GI50", "setting": "U-251", "value": "> 100 µM (inactive)"},
      {"measurement": "GI50", "setting": "HOP-62", "value": "> 100 µM (inactive)"},
      {"measurement": "GI50", "setting": "OVCAR-8", "value": "> 100 µM (inactive)"},
      {"measurement": "GI50", "setting": "NCI/ADR-RES", "value": "> 100 µM (inactive)"},
      {"measurement": "GI50", "setting": "SF-539", "value": "> 100 µM (inactive)"},
      {"measurement": "GI50", "setting": "HT-29", "value": "> 100 µM (inactive)"},
      {"measurement": "GI50", "setting": "HL-60", "value": "> 100 µM (inactive)"},
      {"measurement": "GI50", "setting": "KM12", "value": "> 100 µM (inactive)"},
      {"measurement": "GI50", "setting": "OVCAR-3", "value": "> 100 µM (inactive)"},
      {"measurement": "GI50", "setting": "OVCAR-5", "value": "> 100 µM (inactive)"},
      {"measurement": "GI50", "setting": "UO-31", "value": "> 100 µM (inactive)"}
    ]},
    {"smiles": "CCSc1cc(C(=O)OC)c2n(c1=O)CCCC2", "values": [
      {"measurement": "GI50", "setting": "SK-OV-3", "value": "> 100 µM (inactive)"},
      {"measurement": "GI50", "setting": "COLO 205", "value": "> 100 µM (inactive)"},
      {"measurement": "GI50", "setting": "TK-10", "value": "> 100 µM (inactive)"},
      {"measurement": "GI50", "setting": "PC-3", "value": "> 100 µM (inactive)"},
      {"measurement": "GI50", "setting": "RXF 393", "value": "> 100 µM (inactive)"},
      {"measurement": "GI50", "setting": "LOX IMVI", "value": "> 100 µM (inactive)"},
      {"measurement": "GI50", "setting": "U-251", "value": "> 100 µM (inactive)"},
      {"measurement": "GI50", "setting": "HOP-62", "value": "> 100 µM (inactive)"},
      {"measurement": "GI50", "setting": "OVCAR-8", "value": "> 100 µM (inactive)"},
      {"measurement": "GI50", "setting": "NCI/ADR-RES", "value": "> 100 µM (inactive)"},
      {"measurement": "GI50", "setting": "SF-539", "value": "> 100 µM (inactive)"},
      {"measurement": "GI50", "setting": "HT-29", "value": "> 100 µM (inactive)"},
      {"measurement": "GI50", "setting": "HL-60", "value": "> 100 µM (inactive)"},
      {"measurement": "GI50", "setting": "KM12", "value": "> 100 µM (inactive)"},
      {"measurement": "GI50", "setting": "OVCAR-5", "value": "> 100 µM (inactive)"},
      {"measurement": "GI50", "setting": "SNB-75", "value": "> 100 µM (inactive)"},
      {"measurement": "GI50", "setting": "UO-31", "value": "> 100 µM (inactive)"}
    ]},
    {"smiles": "Nc1nc2c(ncn2Cc2ccccc2CO)c(=O)[nH]1", "values": [
      {"measurement": "GI50", "setting": "SK-OV-3", "value": "> 100 µM (inactive)"},
      {"measurement": "GI50", "setting": "COLO 205", "value": "> 100 µM (inactive)"},
      {"measurement": "GI50", "setting": "HCC 2998", "value": "> 100 µM (inactive)"},
      {"measurement": "GI50", "setting": "TK-10", "value": "> 100 µM (inactive)"},
      {"measurement": "GI50", "setting": "PC-3", "value": "> 100 µM (inactive)"},
      {"measurement": "GI50", "setting": "RPMI-8226", "value": "> 100 µM (inactive)"},
      {"measurement": "GI50", "setting": "LOX IMVI", "value": "> 100 µM (inactive)"},
      {"measurement": "GI50", "setting": "U-251", "value": "> 100 µM (inactive)"},
      {"measurement": "GI50", "setting": "HOP-62", "value": "> 100 µM (inactive)"},
      {"measurement": "GI50", "setting": "OVCAR-8", "value": "> 100 µM (inactive)"},
      {"measurement": "GI50", "setting": "NCI/ADR-RES", "value": "> 100 µM (inactive)"},
      {"measurement": "GI50", "setting": "SF-539", "value": "> 100 µM (inactive)"},
      {"measurement": "GI50", "setting": "HT-29", "value": "> 100 µM (inactive)"},
      {"measurement": "GI50", "setting": "HL-60", "value": "> 100 µM (inactive)"},
      {"measurement": "GI50", "setting": "KM12", "value": "> 100 µM (inactive)"},
      {"measurement": "GI50", "setting": "OVCAR-3", "value": "> 100 µM (inactive)"},
      {"measurement": "GI50", "setting": "OVCAR-5", "value": "> 100 µM (inactive)"},
      {"measurement": "GI50", "setting": "SNB-75", "value": "> 100 µM (inactive)"},
      {"measurement": "GI50", "setting": "UO-31", "value": "> 100 µM (inactive)"}
    ]}
  ]
}
